Results as given in US20160287589A1, “SUBSTITUTED-IMIDAZOPYRIDAZINES” (BAYER PHARMA AKTIENGESELLSCHAFT, priority 2013, published 2016).

Tests used:
MKNK1 [1] = molecular target: T1, MKNK1 (Homo sapiens, UniProt Q9BUB5, T385D); assay: MKNK1 kinase assay (MKNK1 TR-FRET assay); format: biochemical; details: Table 1b; 10 μM ATP, 15 min preincubation
T1 construct: GST (N); purchased Carna Biosciences 02-145; host or cells: insect cells (baculovirus expression system)

MKNK1 [2] = molecular target: T1, MKNK1; assay: MKNK1 kinase high ATP assay (TR-FRET-based); format: biochemical; details: Table 2b; 2 mM ATP, 15 min preincubation
Procedure, shortened: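 TR-FRET read-out (anti-phospho-S6 Ser236 antibody, Eu/XL665) of biotin-peptide phosphorylation (0.06 μM) at high ATP (2 mM final). Enzyme was GST-MKNK1 full length, T344D, pre-bound to compound for 15 min before a 30 min reaction at 22 °C, pH 7.5. Inhibition scaled between no-inhibitor (0%) and no-enzyme (100%) wells.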

T1 sequence (Q9BUB5 1-424 isoform Q9BUB5-2 T344D): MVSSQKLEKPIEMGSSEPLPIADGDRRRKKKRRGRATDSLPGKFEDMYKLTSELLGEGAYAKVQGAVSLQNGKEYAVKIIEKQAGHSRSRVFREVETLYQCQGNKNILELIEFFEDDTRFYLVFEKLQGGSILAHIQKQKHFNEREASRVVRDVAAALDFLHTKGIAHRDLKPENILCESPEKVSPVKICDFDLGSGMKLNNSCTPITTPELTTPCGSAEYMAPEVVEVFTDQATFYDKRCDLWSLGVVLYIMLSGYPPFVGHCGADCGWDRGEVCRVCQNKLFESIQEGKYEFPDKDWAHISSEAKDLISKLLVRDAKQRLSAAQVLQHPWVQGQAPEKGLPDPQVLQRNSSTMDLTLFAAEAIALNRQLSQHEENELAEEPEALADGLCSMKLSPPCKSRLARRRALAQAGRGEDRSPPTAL

| SMILES | IC50 (MKNK1 [1]) [nM] | IC50 (MKNK1 [2]) [nM] |
| --- | --- | --- |
| COC[C@H]1CCCN1c1cccc2oc(-c3cnc4ccc(O[C@H]5C[C@H](N)C5)nn34)cc12 [II-11, trans-3-[(3-{4-[(2R)-2-(Methoxymethyl)pyrrolidin-1-yl]-1-benzofuran-2-yl}imidazo[1,2-b]pyridazin-6-yl)oxy]cyclobutanamine] | 2.4 | 3.5 |
| COc1ccc2ncc(-c3cc4c(N5CCNCC5)cccc4o3)n2n1 [II-21, 6-Methoxy-3-[4-(piperazin-1-yl)-1-benzofuran-2-yl]imidazo[1,2-b]pyridazine] | 0.3 | 0.3 |
| CCN(CCOC)c1cccc2oc(-c3cnc4ccc(OCCCS(C)(=O)=O)nn34)cc12 [II-23, N-Ethyl-N-(2-methoxyethyl)-2-{6-[3-(methylsulfonyl)propoxy]imidazo[1,2-b]-pyridazin-3-yl}-1-benzofuran-4-amine] | 2 | 1.9 |
| CCN(CCOC)c1cccc2oc(-c3cnc4ccc(OC[C@H](C)N)nn34)cc12 [II-24, 2-(6-{[(2S)-2-Aminopropyl]oxy}imidazo[1,2-b]pyridazin-3-yl)-N-ethyl-N-(2-methoxyethyl)-1-benzofuran-4-amine] | 3.3 | 3.2 |
| COC[C@H]1CCCN1c1cccc2oc(-c3cnc4ccc(OC[C@@H](C)N)nn34)cc12 [II-26, (2R)-1-[(3-{4-[(2R)-2-(Methoxymethyl)pyrrolidin-1-yl]-1-benzofuran-2-yl}imidazo[1,2-b]pyridazin-6-yl)oxy]propan-2-amine] | 0.8 | 0.8 |
| COc1ccc2ncc(-c3cc4c(N5CCNC[C@@H]5C)cccc4o3)n2n1 [II-28, 6-methoxy-3-{4-[(2S)-2-methylpiperazin-1-yl]-1-benzofuran-2-yl}imidazo[1,2-b]pyridazine] | 5.1 | 0.7 |
| C[C@H]1CNCCN1c1cccc2oc(-c3cnc4ccc(OCC(F)(F)F)nn34)cc12 [II-29, 3-{4-[(2S)-2-methylpiperazin-1-yl]-1-benzofuran-2-yl}-6-(2,2,2-trifluoroethoxy)im-idazo[1,2-b]pyridazine] | 5.4 | 2.7 |
| C[C@H](N)COc1ccc2ncc(-c3cc4c(N5CCOC[C@@H]5C)cccc4o3)n2n1 [II-31, (2S)-1-[(3-{4-[(3S)-3-methylmorpholin-4-yl]-1-benzofuran-2-yl}imidazo[1,2-b]pyridazin-6-yl)oxy]propan-2-amine] | 24.2 | 35.5 |
| C[C@H]1COCCN1c1cccc2oc(-c3cnc4ccc(O[C@H]5C[C@H](N)C5)nn34)cc12 [II-34, trans-3-[(3-{4-[(3S)-3-methylmorpholin-4-yl]-1-benzofuran-2-yl}imidazo[1,2-b]pyridazin-6-yl)oxy]cyclobutanamine] | 26.7 | 43.2 |
| C[C@@H](N)COc1ccc2ncc(-c3cc4c(N5CCOC(C)(C)C5)cccc4o3)n2n1 [II-35, (2R)-1-({3-[4-(2,2-dimethylmorpholin-4-yl)-1-benzofuran-2-yl]imidazo[1,2-b]pyridazin-6-yl}oxy)propan-2-amine] | 16.7 | 49.6 |
| C[C@@H]1COCCN1c1cccc2oc(-c3cnc4ccc(OC[C@@H](C)N)nn34)cc12 [II-37, (2R)-1-[(3-{4-[(3R)-3-methylmorpholin-4-yl]-1-benzofuran-2-yl}imidazo[1,2-b]pyridazin-6-yl)oxy]propan-2-amine] | 43.9 | 69.1 |
| C[C@H]1CN(c2cccc3oc(-c4cnc5ccc(O[C@H]6C[C@H](N)C6)nn45)cc23)CCO1 [II-43, trans-3-[(3-{4-[(2S)-2-methylmorpholin-4-yl]-1-benzofuran-2-yl}imidazo[1,2-b]pyridazin-6-yl)oxy]cyclobutanamine] | 21.7 | 37.5 |
| COc1ccc2ncc(-c3cc4c(N5CCNC[C@H]5C)cccc4o3)n2n1 [II-44, 6-methoxy-3-{4-[(2R)-2-methylpiperazin-1-yl]-1-benzofuran-2-yl}imidazo[1,2-b]pyridazine] | 2.9 | 3.8 |

The remaining lines, values ahead:

| IC50 (MKNK1 [1]) [nM] | IC50 (MKNK1 [2]) [nM] | SMILES |
| --- | --- | --- |
| 6.5 | 5 | COC[C@H]1CCCN1c1cccc2oc(-c3cnc4ccc(OC)nn34)cc12 [II-10, 6-Methoxy-3-{4-[(2R)-2-(methoxymethyl)pyrrolidin-1-yl]-1-benzofuran-2-yl}-imidazo[1,2-b]pyridazine] |
| 24 | 67 | CS(=O)(=O)CCCOc1ccc2ncc(-c3cc4c(N5CCN(c6ccccc6)CC5)cccc4o3)n2n1 [II-12, 6-[3-(Methylsulfonyl)propoxy]-3-[4-(4-phenylpiperazin-1-yl)-1-benzofuran-2-yl]-imidazo[1,2-b]pyridazine] |
| 39 | 58 | c1cc(N2CCOCC2)c2cc(-c3cnc4ccc(O[C@@H]5CCNC5)nn34)oc2c1 [II-13, 3-[4-(Morpholin-4-yl)-1-benzofuran-2-yl]-6-[(3R)-pyrrolidin-3-yloxy]imidazo[1,2-b]pyridazine] |
| 7 | 27 | O=C1CC[C@H](COc2ccc3ncc(-c4cc5c(N6CCN(c7ccccc7)CC6)cccc5o4)n3n2)N1 [II-14, (5R)-5-[({3-[4-(4-Phenylpiperazin-1-yl)-1-benzofuran-2-yl]imidazo[1,2-b]-pyridazin-6-yl}oxy)methyl]pyrrolidin-2-one] |
| 59 | 137 | C[C@H](N)COc1ccc2ncc(-c3cc4c(N5CCN(c6ccccc6)CC5)cccc4o3)n2n1 [II-15, (2S)-1-({3-[4-(4-Phenylpiperazin-1-yl)-1-benzofuran-2-yl]imidazo[1,2-b]-pyridazin-6-yl}oxy)propan-2-amine] |
| 13 | 15 | N[C@H]1C[C@H](Oc2ccc3ncc(-c4cc5c(N6CCN(c7ccccc7)CC6)cccc5o4)n3n2)C1 [II-16, trans-3-({3-[4-(4-Phenylpiperazin-1-yl)-1-benzofuran-2-yl]imidazo[1,2-b]-pyridazin-6-yl}oxy)cyclobutanamine] |
| 0.6 | 0.5 | CCN(CCOC)c1cccc2oc(-c3cnc4ccc(OC[C@H]5CCC(=O)N5)nn34)cc12 [II-17, (5R)-5-{[(3-{4-[Ethyl(2-methoxyethyl)amino]-1-benzofuran-2-yl}imidazo[1,2-b]-pyridazin-6-yl)oxy]methyl}pyrrolidin-2-one] |
| 0.4 | 0.4 | CN1CCN(c2cccc3oc(-c4cnc5ccc(OC[C@H]6CCC(=O)N6)nn45)cc23)CC1 [II-18, (5R)-5-[({3-[4-(4-Methylpiperazin-1-yl)-1-benzofuran-2-yl]imidazo[1,2-b]-pyridazin-6-yl}oxy)methyl]pyrrolidin-2-one] |
| 0.4 | 0.4 | O=C1CC[C@H](COc2ccc3ncc(-c4cc5c(N6CCNCC6)cccc5o4)n3n2)N1 [II-19, (5R)-5-[({3-[4-(Piperazin-1-yl)-1-benzofuran-2-yl]imidazo[1,2-b]pyridazin-6-yl}-oxy)methyl]pyrrolidin-2-one] |
| 0.5 | 0.8 | CS(=O)(=O)CCCOc1ccc2ncc(-c3cc4c(N5CCNCC5)cccc4o3)n2n1 [II-20, 6-[3-(Methylsulfonyl)propoxy]-3-[4-(piperazin-1-yl)-1-benzofuran-2-yl]imidazo-[1,2-b]pyridazine] |
| 371 | 422 | COc1ccc2ncc(-c3cc4c(N5CCN(c6ccccc6)CC5)cccc4o3)n2n1 [II-22, 6-Methoxy-3-[4-(4-phenylpiperazin-1-yl)-1-benzofuran-2-yl]imidazo[1,2-b]-pyridazine] |
| 2.2 | 5.7 | C[C@H]1CN(c2cccc3oc(-c4cnc5ccc(OC[C@H]6CCC(=O)N6)nn45)cc23)CCO1 [II-27, (5R)-5-{[(3-{4-[(2S)-2-methylmorpholin-4-yl]-1-benzofuran-2-yl}imidazo[1,2-b]pyridazin-6-yl)oxy]methyl}pyrrolidin-2-one] |
| 2.3 | 0.6 | C[C@H]1CNCCN1c1cccc2oc(-c3cnc4ccc(OC[C@H]5CCC(=O)N5)nn34)cc12 [II-30, (5R)-5-{[(3-{4-[(2S)-2-methylpiperazin-1-yl]-1-benzofuran-2-yl}imidazo[1,2-b]pyridazin-6-yl)oxy]methyl}pyrrolidin-2-one] |
| 4.4 | 8.1 | C[C@H]1COCCN1c1cccc2oc(-c3cnc4ccc(OC[C@H]5CCC(=O)N5)nn34)cc12 [II-32, (5R)-5-{[(3-{4-[(3S)-3-methylmorpholin-4-yl]-1-benzofuran-2-yl}imidazo[1,2-b]pyridazin-6-yl)oxy]methyl}pyrrolidin-2-one] |
| 16.3 | 24.4 | C[C@H]1COCCN1c1cccc2oc(-c3cnc4ccc(OC[C@@H]5CCC(=O)N5)nn34)cc12 [II-33, (5S)-5-{[(3-{4-[(3S)-3-methylmorpholin-4-yl]-1-benzofuran-2-yl}imidazo[1,2-b]pyridazin-6-yl)oxy]methyl}pyrrolidin-2-one] |
| 2.3 | 1 | CC1(C)CN(c2cccc3oc(-c4cnc5ccc(OC[C@@H]6CCC(=O)N6)nn45)cc23)CCN1 [II-36, (5S)-5-[({3-[4-(3,3-dimethylpiperazin-1-yl)-1-benzofuran-2-yl]imidazo[1,2-b]pyridazin-6-yl}oxy)methyl]pyrrolidin-2-one] |
| 4.6 | 1.4 | C[C@H]1CNCCN1c1cccc2oc(-c3cnc4ccc(OC[C@@H]5CCC(=O)N5)nn34)cc12 [II-38, (5S)-5-{[(3-{4-[(2S)-2-methylpiperazin-1-yl]-1-benzofuran-2-yl}imidazo[1,2-b]pyridazin-6-yl)oxy]methyl}pyrrolidin-2-one] |
| 1.6 | 1.1 | COc1ccc2ncc(-c3cc4c(N5CCN[C@H](C)C5)cccc4o3)n2n1 [II-39, 6-methoxy-3-{4-[(3R)-3-methylpiperazin-1-yl]-1-benzofuran-2-yl}imidazo[1,2-b]pyridazine] |
